Data as given in paper PMC9657236, “Anti-Leukemic Activity of Brassica-Derived Bioactive Compounds in HL-60 Myeloid Leukemia Cells” (International Journal of Molecular Sciences, 2022).
Read-outs that look alike come from different tables or passages of the source. Values belong to the compound of their own block, whether it stands above or below them.

Legend:
[1] = tested on: NRF2/KEAP1 signaling pathway; assay: RT-qPCR gene expression in undifferentiated HL-60 cells; assay type: cell-based, human; details: for expression levels of the NRF2-target genes HMOX, NQO1 and GSTA1 (in words): undifferentiated HL-60, RT-qPCR, dose-dependent
Excerpt: Total RNA was extracted from HL-60 cells using the GenElute Mammalian Total RNA Miniprep kit (Sigma) following the manufacturer’s instructions. RNA was eluted in RNAse-free water and checked for concentration and purity using the Nanodrop spectrophotometer system (ND-100 3.3. Nanodrop Technologies, Thermo Scientific, Madrid, Spain). Only samples with a ratio of Abs260/Abs280 between 1.8 and 2.1 were used for gene expression assays. cDNA was generated using a high-capacity RNA-to-cDNA kit (Thermo Fisher Scientific, Madrid, Spain) according to the manufacturer’s protocol. PCR amplification was carried out with PowerUp SYBR Green PCR Master Mix (Applied Biosystems, Waltham, MA, USA) using a Fast 7500 Real-Time instrument (Applied Biosystems, Waltham, MA, USA). The obtained data were analyzed using the 7500 SDS software (Applied Biosystems, Waltham, MA, USA). Actin beta (ACTB) and Glyceraldehyde 3-phosphate dehydrogenase (GAPDH) were used as reference genes. Both were considered suitable reference genes for gene expression normalization based on geNorm and/or Bestkeeper stability analysis. The gene-stability measures were performed using the RefFinder tool. Relative expression was calculated using the 2^−ΔΔCt method. All experiments were performed in triplicate and in three independent experiments.

[2] = MTT viability assay in macrophage-like differentiated HL-60 cells; assay type: cell-based, human; details: human, macrophage-like differentiated HL-60 cells (PMA), differentiated HL-60 cells, 48 h, MTT, mean ± SD
Method: (§1) In order to test the specificity of the compounds as potential anti-tumor/cytotoxic agents with no collateral negative effects upon non-proliferative cells, the series of compounds were also assayed in an in vitro model of human macrophage-like cells derived from the same HL-60 cell line. To obtain these differentiated macrophage-like cells, HL-60 human leukemia cells growing at an exponential rate in suspension were exposed to a dose of 10 ng/mL of phorbol myristate acetate (PMA) (Sigma-Aldrich, Merck, Análisis Vínicos SL, Tomelloso, Spain) for 24 h in 96-well plates at a cell density of 0.2·10^6 HL-60 cells/well at 37 °C and 5% CO2. Cells were then incubated in culture media without PMA for another 24 h in the same culture conditions. After differentiation and resting periods, differentiated cells were treated for 48 h with compound solutions at different concentrations. Finally, MTT assays were performed as previously explained to measure cell viability. All experiments were performed in triplicate and in three independent experiments.

[3] = tested on: HL-60 cells; design: method as in PMID 15135302; details: apoptosis induction and cytodifferentiation; cited from earlier work
[4] = tested on: HL-60 cells; assay: MTT viability assay in proliferative HL-60 cells; assay type: cell-based, human; details: for IC50: proliferative HL-60 cells, mean ± SD, n = 3; for IC50 / effect on HL-60 cell viability (in words): MTT; for cytotoxic effect (in words): after 24 h; for effect on HL-60 cell viability (in words): doses up to 50 µM, 24, 48 and 72 h
Method: The human acute myeloid leukemia cell line HL-60 (ATCC® CCL-240™) was used to test the Brassica spp. phytochemicals. Maintenance of the cells was performed as previously described. Briefly, cells were grown in RPMI-1640 medium (Biowest) supplemented with 10% fetal bovine serum (FBS; Gibco, Thermo Fisher Scientific, Madrid, Spain) and 1% penicillin/streptomycin (Gibco, Thermo Fisher Scientific, Madrid, Spain), at 37 °C with 5% CO2 and 90% humidity. All in vitro assays were performed after passage number 5 and before passage number 20 with cells growing at an exponential ratio.
The anti-tumor activity of the compounds was evaluated by the MTT (3-(4,5-dimethylthiazol-2-yl)-2,5-diphenyltetrazolium bromide) viability assays as described previously. In brief, HL-60 cells were cultured at a concentration of 10^5 cells/mL (exponential growth rate) in 96-well plates containing 200 μL of cell culture medium and exposed to different doses of the tested compounds (0.5 μM, 1 μM, 5 μM, 10 μM, 25 μM, and 50 μM) for 24, 48, and 72 h. Then, MTT (Thermo Fisher) was added at a final concentration of 483 μM (0.2 mg/mL) and cells were incubated for 1 h at 37 °C and 5% CO2. Afterward, cells were lysed using an acidified isopropanol solubilization solution containing 0.04 M hydrochloric acid and 0.1% NP-40 detergent to release the formazan. Finally, the absorbance was measured at 550 nm using a SPECTROstar Nano (BMG Labtech, Germany) plate reader. The compound cytotoxicity was normalized to the control conditions (untreated with an equivalent dose of vehicle (DMSO) when applicable).

[5] = tested on: HL-60 differentiated cells; assay: MTT viability assay in macrophage-like differentiated HL-60 cells; assay type: cell-based, human
Method: as §1

[6] = Homo sapiens, HL-60, higher dose (50 µM), 48 h, read-out: cell viability

IC50 ([4]; Homo sapiens, 48 h treatment): 7 ± 1 µM | IC50 ([4]; Homo sapiens, 72 h treatment): 21.9 ± 0.3 µM
Structure (SMILES): OC[C@H]1O[C@@H](Oc2cc3c(O)cc(O)cc3[o+]c2-c2ccc(O)c(O)c2)[C@H](O)[C@@H](O)[C@@H]1O [C3G, cyanidin-3-glucoside chloride]
expression levels of the NRF2-target genes HMOX, NQO1 and GSTA1 (in words) [1]: markedly induce | viability at 48 h, 10 µM [2]: 114 ± 24.4% | viability at 48 h, 25 µM [2]: 108 ± 7.4% | viability at 48 h, 50 µM [2]: 107 ± 12.8% | concentrations needed to inhibit the proliferative capacity of HL-60 cells [3]: > 100 µM | cell viability ([4]; 10–50 µM doses, 24 h): around 40% | cell viability ([4]; 25 and 50 µM, 48 h and 72 h): below 20%

IC50 ([4]; Homo sapiens, 48 h treatment): 17.4 ± 0.7 µM | IC50 ([4]; Homo sapiens, 72 h treatment): 28.9 ± 0.7 µM
Structure (SMILES): O=C(/C=C/c1ccc(O)c(O)c1)O[C@@H]1C[C@](O)(C(=O)O)C[C@@H](O)[C@H]1O [CQA, Chlorogenic acid]
expression levels of the NRF2-target genes HMOX, NQO1 and GSTA1 (in words) [1]: markedly induce | viability at 48 h, 10 µM [2]: 114 ± 19.2% | viability at 48 h, 25 µM [2]: 114 ± 20.6% | viability at 48 h, 50 µM [2]: 109 ± 11.8% | viability at 25 µM ([4]; Homo sapiens, HL-60, 25 µM treatment, 48 and 72 h, read-out: cell viability): < 50% | viability at 50 µM [4, 6]: 13% | viability at 50 µM ([4]; Homo sapiens, HL-60, higher dose (50 µM), 72 h, read-out: cell viability): 11%

Structure (SMILES): c1ccc2c(Cc3c[nH]c4ccccc34)c[nH]c2c1 [DIM, 3,3′-Diindolmethane]
viability at 48 h, 10 µM [2]: 102 ± 22.7% | viability at 48 h, 25 µM [2]: 118 ± 27.2% | viability at 48 h, 50 µM [2]: 105 ± 13.5% | viability at 50 µM [4, 6]: 25% | cytotoxic effect (in words) [4]: mild but significant cytotoxic effect | maximum cytotoxicity ([4]; higher dose (50 µM), 48 h): 75%

Structure (SMILES): O=S(=O)(O)O/N=C(/Cc1c[nH]c2ccccc12)S[C@@H]1O[C@H](CO)[C@@H](O)[C@H](O)[C@H]1O [GBS, glucobrassicin]
effect on HL-60 cell viability (in words) [4]: did not show any effect

Structure (SMILES): CSCCCCC(=NOS(=O)(=O)O)SC1OC(CO)C(O)C(O)C1O (stereo not drawn) [GER, glucoerucin]
effect on HL-60 cell viability (in words) [4]: did not show any significant effects

Structure (SMILES): C[S+]([O-])CCCC/C(=N\OS(=O)(=O)O)S[C@@H]1O[C@H](CO)[C@@H](O)[C@H](O)[C@H]1O (stereo partly drawn) [GRA, glucoraphanin]
effect on HL-60 cell viability (in words) [4]: did not show any significant effects

Structure (SMILES): OCc1c[nH]c2ccccc12 [I3C, indole-3-carbinol]
viability at 48 h, 10 µM [2]: 93.6 ± 8% | viability at 48 h, 25 µM [2]: 99.5 ± 5.4% | viability at 48 h, 50 µM [2]: 95.1 ± 10.4% | viability at 50 µM ([4]; Homo sapiens, HL-60, maximum dose (50 µM), 24 h, read-out: cell viability): 38% | cytotoxic effect (in words) [4]: mild but significant cytotoxic effect

IC50 ([4]; Homo sapiens, HL-60, 48 h, 48 h treatment): 6 µM | IC50 ([4]; Homo sapiens, HL-60, 72 h, 72 h treatment): 11.3 ± 0.5 µM | IC50 ([4]; 48 h treatment): 5.9 ± 0.3 µM
Structure (SMILES): C[S+]([O-])CCCCN=C=S (stereo not drawn) [SFN, sulforaphane]
induction of the NRF2/KEAP1 signaling pathway (in words) ([1]; HL-60 cells): most potent NRF2 activator | expression levels of the NRF2-target genes HMOX, NQO1 and GSTA1 (in words) [1]: markedly induce | cytotoxicity in differentiated cells (in words) ([5]; 10 µM): did not cause significant cytotoxicity | cytotoxic effect in differentiated HL-60 cells (in words) ([5]; concentrations higher than 10 µM, 48 h): significant cytotoxic effect | viability at 48 h, 10 µM [2]: 98.2 ± 12.1% | viability at 48 h, 25 µM [2]: 87.6 ± 6.8% | viability at 48 h, 50 µM [2]: 70 ± 17.5% | cytotoxicity levels ([4]; 25 µM and 50 µM, all time points (24, 48 and 72 h)): above 95% | viability at 10 µM ([4]; Homo sapiens, HL-60, 10 µM dose, all time points (24, 48, 72 h)): < 50%

Structure (SMILES): COc1cc(/C=C/C(=O)O)cc(OC)c1O [SIA, sinapic acid]
effect on HL-60 cell viability (in words) [4]: did not have any effect whatsoever
